Reference: patent US20100099113A1, “MINIMIZED SMALL PEPTIDES WITH HIGH AFFINITY FOR FACTOR VIII AND FACTOR VIII-LIKE PROTEINS” (Technische Universitat Muenchen, priority 2006, published 2010)
Where no end group is shown, it is not given here. [ ]: non-standard residue; d: D form. Bpa = N[C@@H](Cc1ccc(C(=O)c2ccccc2)cc1)C(=O)O; 1Nal = N[C@@H](Cc1cccc2ccccc12)C(=O)O; Bta = N[C@@H](Cc1csc2ccccc12)C(=O)O; NMeY = CN[C@@H](Cc1ccc(O)cc1)C(=O)O; Phg = N[C@H](C(=O)O)c1ccccc1; Abu = CC[C@H](N)C(=O)O

Target: T1, Plasma-derived (pd-) human Factor VIII (Homo sapiens, UniProt P00451)
T1 construct: from tissue; host or cells: human blood plasma (FVIII concentrate)
T1 sequence (P00451 20-1667 limits assumed): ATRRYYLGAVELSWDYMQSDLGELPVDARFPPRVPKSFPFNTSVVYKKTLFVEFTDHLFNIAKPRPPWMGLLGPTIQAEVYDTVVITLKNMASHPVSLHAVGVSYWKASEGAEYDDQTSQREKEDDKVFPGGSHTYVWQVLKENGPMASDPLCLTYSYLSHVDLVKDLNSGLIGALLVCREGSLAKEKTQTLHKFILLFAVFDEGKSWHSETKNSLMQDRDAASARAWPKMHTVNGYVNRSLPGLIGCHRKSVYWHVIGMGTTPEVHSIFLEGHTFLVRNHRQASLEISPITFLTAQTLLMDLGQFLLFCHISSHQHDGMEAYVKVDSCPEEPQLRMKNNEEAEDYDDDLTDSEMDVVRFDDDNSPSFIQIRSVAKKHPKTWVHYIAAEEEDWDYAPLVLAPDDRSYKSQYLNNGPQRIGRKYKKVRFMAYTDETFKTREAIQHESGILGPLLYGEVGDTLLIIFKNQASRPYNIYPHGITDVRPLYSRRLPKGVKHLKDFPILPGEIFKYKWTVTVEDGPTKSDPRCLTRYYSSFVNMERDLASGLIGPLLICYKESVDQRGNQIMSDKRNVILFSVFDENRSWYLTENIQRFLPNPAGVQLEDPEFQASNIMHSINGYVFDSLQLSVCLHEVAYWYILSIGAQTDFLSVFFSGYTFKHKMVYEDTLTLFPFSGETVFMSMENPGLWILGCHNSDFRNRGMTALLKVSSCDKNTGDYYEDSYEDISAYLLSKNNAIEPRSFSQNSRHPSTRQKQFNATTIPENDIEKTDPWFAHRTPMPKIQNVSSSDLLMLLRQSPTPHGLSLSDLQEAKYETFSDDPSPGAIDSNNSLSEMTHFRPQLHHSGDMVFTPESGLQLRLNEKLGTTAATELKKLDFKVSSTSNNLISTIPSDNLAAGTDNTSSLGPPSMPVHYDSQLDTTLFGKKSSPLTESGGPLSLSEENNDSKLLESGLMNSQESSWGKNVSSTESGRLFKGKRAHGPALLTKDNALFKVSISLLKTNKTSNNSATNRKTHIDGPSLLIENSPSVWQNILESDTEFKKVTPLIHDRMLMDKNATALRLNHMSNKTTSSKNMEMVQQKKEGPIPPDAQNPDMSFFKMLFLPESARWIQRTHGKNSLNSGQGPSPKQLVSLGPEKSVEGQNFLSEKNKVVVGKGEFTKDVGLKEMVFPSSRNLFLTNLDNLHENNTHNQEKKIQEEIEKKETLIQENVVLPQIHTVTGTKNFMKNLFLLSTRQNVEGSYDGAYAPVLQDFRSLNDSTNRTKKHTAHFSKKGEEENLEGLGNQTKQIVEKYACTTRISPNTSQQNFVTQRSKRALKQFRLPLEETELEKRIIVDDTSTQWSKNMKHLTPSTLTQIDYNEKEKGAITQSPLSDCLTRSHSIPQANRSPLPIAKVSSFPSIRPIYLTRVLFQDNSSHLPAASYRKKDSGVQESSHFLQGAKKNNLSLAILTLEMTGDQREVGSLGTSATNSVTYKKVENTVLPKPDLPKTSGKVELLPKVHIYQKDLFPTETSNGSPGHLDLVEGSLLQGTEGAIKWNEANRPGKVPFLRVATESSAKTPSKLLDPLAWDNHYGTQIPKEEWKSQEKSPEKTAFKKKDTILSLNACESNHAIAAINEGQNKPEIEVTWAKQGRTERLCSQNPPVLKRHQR
T1 sequence (P00451 1668-2351 limits assumed): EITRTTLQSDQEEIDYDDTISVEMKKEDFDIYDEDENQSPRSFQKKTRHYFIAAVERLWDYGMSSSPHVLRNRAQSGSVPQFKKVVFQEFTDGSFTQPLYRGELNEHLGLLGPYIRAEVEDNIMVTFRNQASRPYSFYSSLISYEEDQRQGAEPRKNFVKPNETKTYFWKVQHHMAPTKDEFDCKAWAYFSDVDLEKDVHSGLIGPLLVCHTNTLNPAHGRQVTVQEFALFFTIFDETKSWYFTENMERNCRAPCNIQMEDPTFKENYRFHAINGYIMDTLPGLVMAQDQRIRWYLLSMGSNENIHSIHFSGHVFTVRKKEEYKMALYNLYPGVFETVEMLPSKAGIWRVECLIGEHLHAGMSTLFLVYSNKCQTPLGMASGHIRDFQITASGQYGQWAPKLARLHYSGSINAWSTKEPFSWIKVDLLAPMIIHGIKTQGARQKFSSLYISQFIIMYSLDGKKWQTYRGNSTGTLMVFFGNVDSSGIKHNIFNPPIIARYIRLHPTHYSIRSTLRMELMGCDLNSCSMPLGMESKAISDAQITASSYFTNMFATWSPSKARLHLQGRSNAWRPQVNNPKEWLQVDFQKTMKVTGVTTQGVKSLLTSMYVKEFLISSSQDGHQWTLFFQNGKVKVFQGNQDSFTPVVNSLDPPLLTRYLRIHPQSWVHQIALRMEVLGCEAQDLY
Experiment: Binding of 125I-labeled pd-FVIII to peptide-coated Toyopearl resin (micro-beads assay)
Conditions: for % Binding pdFVIII: peptide immobilized on Toyopearl AF-Epoxy-650M resin, 125I-pd-FVIII, 2 hours room temperature, percent of maximal achievable binding (anti-FVIII Mab 8860-coated resin), mean ± SD of four determinations
Experimental: Peptides S1 to S84 were immobilized on the Toyopearl AF-Epoxy-650M resin (Tosoh Biosep) as described by Jungbauer et al. For immobilization, 2.5 mg of each peptide was dissolved in 0.25 mL of the immobilization buffer (0.2 M sodium bicarbonate, pH 10.3), and 0.036 g of the dry resin powder (corresponding to 0.125 mL of swollen resin) was added, followed by incubation of the mixture with gentle rotation for 48 hours. Upon incubation for 48 hours the resin was washed once with immobilization buffer, once with 1 M NaCl and then 3 times with binding buffer, and binding of ^125I-labeled pd-FVIII to the peptide-coated and control resin was tested. The coupling density of each peptide in each of the reported experiments was as mentioned in Table 1. The control 0.25 mL portion of the resin was similarly treated in parallel experiment in the absence of peptide and was subsequently used as a control (designated as Background) in ^125I-pd-FVIII binding experiments. ^125I-pd-FVIII Bound/Background ratios were calculated as the amount of ^125I-pd-FVIII, bound to an immobilized peptide, divided by that bound to uncoated control resin, prepared as described above. This ratio represents a Signal/Noise ratio for the micro-beads assay, since ^125I-pd-FVIII bound to peptide represents the signal value and ^125I-pd-FVIII bound to peptide-uncoated resin represents the background (noise) value.
Plasma-derived (pd-) human Factor VIII (FVIII) was purified from concentrate by immunoaffinity chromatography on an anti-FVIII monoclonal antibody column followed by subsequent concentration of pd-FVIII by ion-exchange chromatography using Resource Q HR5/5 column.
The resin with immobilized peptides was washed in the binding buffer (0.01 M Hepes, 0.1 M NaCl, 5 mM CaCl2, 0.01% Tween-80). Subsequently, the resin was diluted in the binding buffer as 1:7 slurry and aliquoted into Eppendorf tubes (40 μL per tube). ^125I-pd-FVIII (100000 cpm in 10 μL) was added to the tubes and the volume of the mixture was adjusted to 100 μL by adding 50 μL of the binding buffer containing 4% BSA to give a 2% final concentration of BSA. After 2 hours of incubation at room temperature on a rotator, the samples were washed 4 times in the binding. After each wash the tubes were centrifuged at 5000 rpm for 1 min in an Eppendorf microcentrifuge, supernatant was discarded, and the resin was re-suspended in the washing buffer, followed by centrifugation under the same conditions. After four washes the tubes with pellet without supernatant were counted for radioactivity. The resin without peptide was processed similarly to account for non-specific pd-FVIII binding to tubes and resin itself, and the radioactivity in this control tube was considered as a background value. Since ^125I-pd-FVIII contains the some fraction damaged during radiolabeling, binding was calculated as a percent of maximal achievable binding, determined in separate experiment with anti-FVIII Mab 8860-coated resin.
All the measurements were performed in duplicates. Each experiment was performed using two independently prepared immobilized peptide samples. The data presented in each table are the mean values of the four determinations: duplicate determination in the two assays performed with beads on which peptides were independently immobilized on the different days. The value of standard deviation of the above quadruplicate determinations (duplicate determinations in two independent experiments) were typically less than 10% of the measured values of ^125I-pd-FVIII binding to peptides.

[1] = Table 2, peptides with C-terminal cysteine linker immobilized on Toyopearl AF-Epoxy-650M resin
[2] = Table 3, hexapeptides with linker cysteine within the binding sequence

Substance | % Binding pdFVIII [%] | % Binding Factor VIII [1] [%] | % Binding Factor VIII [2] [%]
(N-Me)S-W-E-Y-C [S21] | 48.4 ± 3.7 | – | –
(N-Me)Y-C-S-W-E-Y ([NMeY]CSWEY) [S69] | 7.1 ± 0.7 | – | –
Ac-H-S-W-E-Y-C (Ac-HSWEYC) [S31] | 48.9 ± 3.0 | 49 | –
Ac-S-W-E-Y-C [S30] | 42.6 ± 1.3 | 43 | –
Ac-Y-C-S-W-E-Y (Ac-YCSWEY) [S9] | 81.6 ± 2.8 | – | 82
Ac-Y-C-S-W-E-Y-NH2 (Ac-YCSWEY-NH2) [S2] | 59.2 ± 4.6 | – | –
Ac-Y-C-T-W-D-Y (Ac-YCTWDY) [S14] | 82.3 ± 1.4 | – | –
Ac-Y-C-T-W-D-Y-NH2 (Ac-YCTWDY-NH2) [S4] | 58.5 ± 2.4 | – | –
Ac-Y-H-S-W-E-Y-C (Ac-YHSWEYC) [S32] | 62.2 ± 4.4 | 62 | –
EYHSWEYC [reference compound] | – | 50 | –
H-S-W-E-Y-C (HSWEYC) [S29] | 54.4 ± 4.9 | 54 | –
S-(1-Nal)-E-Bip(4,4′)-C [S62] | 38.6 ± 0.4 | – | –
S-(2-Nal)-E-Bip(4,4′)-C [S63] | 41.4 ± 1.2 | – | –
S-Bip(4,4′)-E-Bpa-C [S64] | 36.2 ± 1.5 | – | –
S-Bpa-E-(1-Nal)-C [S57] | 35.4 ± 6.6 | – | –
S-Bpa-E-(2-Nal)-C [S58] | 42.0 ± 5.3 | – | –
S-Bpa-E-Bip(4,4′)-C [S59] | 30.9 ± 2.1 | – | –
S-Bpa-E-Bpa-C [S61] | 1.1 ± 3.3 | – | –
S-Bpa-E-Phe(4-Cl)-C [S60] | 33.9 ± 3.2 | – | –
S-Bpa-E-Phg-C [S72] | 41.3 ± 1.4 | – | –
S-Bpa-E-Y-C [S71] | 30.6 ± 0.4 | – | –
S-Bta-E-Bpa-C [S65] | 39.2 ± 2.4 | – | –

Substance | % Binding pdFVIII [%] | % Binding Factor VIII [1] [%] | % Binding Factor VIII [2] [%]
S-Phe(3,4-Cl)-E-Bpa-C [S67] | 47.7 ± 0.0 | – | –
S-Phe(4-Cl)-E--Bpa-C [S66] | 40.0 ± 2.5 | – | –
S-W-E-Bpa-C [S73] | 40.0 ± 2.8 | – | –
Y-C-(N-Me)S-W-E-Y [S24] | 14.4 ± 0.4 | – | –
Y-C-A-W-D-Y (YCAWDY) [S16] | 72.0 ± 15.5 | – | 72
Y-C-A-W-E-Y (YCAWEY) [S81] | 72.1 ± 7.2 | – | –
Y-C-S-(N-Me)W-E-Y [S70] | 72.2 ± 1.7 | – | –
Y-C-S-W-(N-Me)E-Y [S25] | 45.2 ± 2.5 | – | –
Y-C-S-W-D-Y (YCSWDY) [S11] | 79.9 ± 4.0 | – | 80
Y-C-S-W-E-(N-Me)Y [S26] | 48.8 ± 3.1 | – | –
Y-C-S-W-E-Y (YCSWEY) [S7] | 64.1 ± 3.2 | – | 64
Y-C-S-W-E-Y-NH2 (YCSWEY-NH2) [S1] | 41.8 ± 3.2 | – | –
Y-C-T-W-D-Y (YCTWDY) [S12] | 74.2 ± 4.2 | – | 74
Y-C-T-W-D-Y-NH2 (YCTWDY-NH2) [S3] | 42.3 ± 4.3 | – | –
Y-C-T-W-E-Y (YCTWEY) [S10] | 80.3 ± 1.3 | – | 80
Y-C-V-W-D-Y (YCVWDY) [S18] | 72.0 ± 1.2 | – | 72
Y-C-V-W-E-Y (YCVWEY) [S82] | 94.1 ± 4.70 | – | –
Y-F-(N-Me)S-W-E-Y-C [S22] | 47.6 ± 4.6 | – | –
Y-F-S-W-(N-Me)E-Y-C [S23] | 53.1 ± 0.3 | – | –
Y-H-S-Phe(3,4-Cl)-E-Y-C [S77] | 34.4 ± 3.2 | – | –
Y-H-V-W-E-Y-C (YHVWEYC) [S76] | 26.6 ± 1.3 | – | –
Y-W-E-Y-C [S79] | 47.7 ± 0.45 | – | –

Substance | % Binding pdFVIII [%] | % Binding Factor VIII [1] [%] | % Binding Factor VIII [2] [%]
Y-Y-S-W-E-Y-C (YYSWEYC) [S68] | 54.3 ± 2.1 | – | –
Y-c-S-W-E-Y [S6] | 55.8 ± 2.3 | – | –
Y-f-(N-Me)S-W-E-Y-C [S27] | 57.5 ± 4.6 | – | –
Y-f-S-W-(N-Me)E-Y-C [S28] | 65.1 ± 2.5 | – | –
Y-f-S-W-E-Y-C [S34] | 53.6 ± 2.7 | 54 | –
Y-homoC-S-W-E-Y [S5] | 59.7 ± 3.8 | – | –
YCS[1Nal]EY [S80] | 35.3 ± 3.0 | – | –
YCS[Bpa]EY [S15] | 49.4 ± 2.2 | – | –
YF[Abu]WEFC [S33] | 53.4 ± 5.3 | 53 | –
YHSWE[Phg]C [S74] | 34.9 ± 0.4 | – | –
YHS[Bpa]EYC [S37] | 39.1 ± 1.2 | – | –
YHS[Bpa]E[Phg]C [S75] | 28.1 ± 0.3 | – | –
YHS[Bta]EYC [S78] | 6.0 ± 0.8 | – | –
YH[Abu]WDYC [S39] | 46.4 ± 0.8 | – | –
c-y-e-w-s [S35] | 37.1 ± 1.0 | – | –
y-d-w-a-c-y [S17] | 75.1 ± 0.6 | – | 75
y-d-w-t-c-y [S13] | 53.8 ± 0.5 | – | –
y-d-w-v-c-y [S19] | 73.4 ± 5.6 | – | 73
y-e-w-a-c-y [S83] | 53.6 ± 2.5 | – | –
y-e-w-s-c-y [S8] | 69.4 ± 6.6 | – | 69
y-e-w-v-c-y [S84] | 77.0 ± 4.2 | – | –
